From US11352340B2, “Pyridine and pyridimine compounds as PI3K-gamma inhibitors” (Incyte Corporation, priority 2016, dated 2022)
Where a name gives a salt, the structure may show the parent alone. Read-outs that look alike come from different tables or passages of the source.

Key:
[1] = system: Phosphorylated Ribosomal Protein S6 (RPS6) in THP-1 cells; assay: THP-1 RPS6 ELISA Assay; type: cell-based, Human; conditions: MCP-1 stimulated, phospho-RPS6 ELISA, read-out: THP p-RPS6 ELISA IC50
Method in brief: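 Serum-starved THP-1 cells (2×10^5/well, RPMI) preincubated with compound 2 h at 37° C, then stimulated with 10 nM MCP-1 for 15 min. Lysates assayed by phospho-RPS6 ELISA, absorbance 450 nm (540 nm correction); IC50 from percent inhibition versus log concentration.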

[2] = molecular target: PI3Kγ (p110γ) Recombinant Human Protein (Homo sapiens (Human), UniProt P48736); assay: PI3K-γ Scintillation Proximity Assay; type: biochemical; conditions: read-out: PI3K-gamma SPA IC50
Method in brief: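 Recombinant human p110γ (13 nM) with 20 μM PIP2 and 2 μM ATP plus 0.5 μCi [γ-33P]ATP in 20 mM MOPS pH 6.7, 10 mM MgCl2, 5 mM DTT, 0.03% CHAPS, 2% DMSO, 120 min at room temperature. Product captured on WGA SPA beads and counted; IC50 fitted from % of solvent control versus log concentration.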

[3] = molecular target: PI3Kδ (p110δ/p85α) Recombinant Human Protein (Homo sapiens (Human), UniProt O00329); assay: PI3Kδ Scintillation Proximity Assay; type: biochemical; conditions: read-out: PI3K-delta SPA IC50
Method in brief: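 Kinase reaction run at room temperature in 20 mM MOPS pH 6.7, 10 mM MgCl2, 5 mM DTT, 0.03% CHAPS with 20 μM PIP2, 2 μM ATP plus [γ-33P]ATP, 3.4 nM enzyme, 2% DMSO; 120 min. Quenched with WGA SPA beads/EDTA, counted by scintillation; IC50 from % solvent-control activity vs log concentration.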

PI3Kγ (p110γ) Recombinant Human Protein, sequence (P48736 whole entry): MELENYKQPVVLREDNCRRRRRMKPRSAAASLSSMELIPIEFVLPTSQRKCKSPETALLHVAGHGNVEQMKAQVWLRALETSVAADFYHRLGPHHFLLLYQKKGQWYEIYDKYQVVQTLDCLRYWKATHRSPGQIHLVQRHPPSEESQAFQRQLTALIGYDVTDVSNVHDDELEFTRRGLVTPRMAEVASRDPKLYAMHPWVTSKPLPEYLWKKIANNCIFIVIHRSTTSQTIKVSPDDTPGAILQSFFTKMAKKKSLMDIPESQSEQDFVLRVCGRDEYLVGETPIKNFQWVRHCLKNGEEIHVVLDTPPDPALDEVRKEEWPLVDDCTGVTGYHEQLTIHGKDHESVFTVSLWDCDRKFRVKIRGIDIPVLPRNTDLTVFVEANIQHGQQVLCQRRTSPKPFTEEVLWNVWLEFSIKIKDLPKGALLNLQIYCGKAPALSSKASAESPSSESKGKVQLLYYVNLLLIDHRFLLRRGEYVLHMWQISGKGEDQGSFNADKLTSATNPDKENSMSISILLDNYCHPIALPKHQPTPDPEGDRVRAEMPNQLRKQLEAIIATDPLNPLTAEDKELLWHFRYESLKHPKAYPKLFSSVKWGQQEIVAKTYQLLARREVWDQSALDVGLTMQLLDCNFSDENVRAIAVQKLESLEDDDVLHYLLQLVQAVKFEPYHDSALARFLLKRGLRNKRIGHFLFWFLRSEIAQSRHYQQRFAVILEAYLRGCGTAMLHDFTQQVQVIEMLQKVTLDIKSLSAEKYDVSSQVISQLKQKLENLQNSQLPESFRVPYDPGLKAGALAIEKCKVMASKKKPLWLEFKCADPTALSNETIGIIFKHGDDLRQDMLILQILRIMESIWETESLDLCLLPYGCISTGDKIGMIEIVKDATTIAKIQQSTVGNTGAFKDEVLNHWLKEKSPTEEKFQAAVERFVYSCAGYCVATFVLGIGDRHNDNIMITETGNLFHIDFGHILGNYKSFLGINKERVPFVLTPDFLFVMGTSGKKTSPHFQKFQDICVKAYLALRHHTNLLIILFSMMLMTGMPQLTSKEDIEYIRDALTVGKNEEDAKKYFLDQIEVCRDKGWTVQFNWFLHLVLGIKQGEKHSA
PI3Kδ (p110δ/p85α) Recombinant Human Protein, sequence (O00329 whole entry): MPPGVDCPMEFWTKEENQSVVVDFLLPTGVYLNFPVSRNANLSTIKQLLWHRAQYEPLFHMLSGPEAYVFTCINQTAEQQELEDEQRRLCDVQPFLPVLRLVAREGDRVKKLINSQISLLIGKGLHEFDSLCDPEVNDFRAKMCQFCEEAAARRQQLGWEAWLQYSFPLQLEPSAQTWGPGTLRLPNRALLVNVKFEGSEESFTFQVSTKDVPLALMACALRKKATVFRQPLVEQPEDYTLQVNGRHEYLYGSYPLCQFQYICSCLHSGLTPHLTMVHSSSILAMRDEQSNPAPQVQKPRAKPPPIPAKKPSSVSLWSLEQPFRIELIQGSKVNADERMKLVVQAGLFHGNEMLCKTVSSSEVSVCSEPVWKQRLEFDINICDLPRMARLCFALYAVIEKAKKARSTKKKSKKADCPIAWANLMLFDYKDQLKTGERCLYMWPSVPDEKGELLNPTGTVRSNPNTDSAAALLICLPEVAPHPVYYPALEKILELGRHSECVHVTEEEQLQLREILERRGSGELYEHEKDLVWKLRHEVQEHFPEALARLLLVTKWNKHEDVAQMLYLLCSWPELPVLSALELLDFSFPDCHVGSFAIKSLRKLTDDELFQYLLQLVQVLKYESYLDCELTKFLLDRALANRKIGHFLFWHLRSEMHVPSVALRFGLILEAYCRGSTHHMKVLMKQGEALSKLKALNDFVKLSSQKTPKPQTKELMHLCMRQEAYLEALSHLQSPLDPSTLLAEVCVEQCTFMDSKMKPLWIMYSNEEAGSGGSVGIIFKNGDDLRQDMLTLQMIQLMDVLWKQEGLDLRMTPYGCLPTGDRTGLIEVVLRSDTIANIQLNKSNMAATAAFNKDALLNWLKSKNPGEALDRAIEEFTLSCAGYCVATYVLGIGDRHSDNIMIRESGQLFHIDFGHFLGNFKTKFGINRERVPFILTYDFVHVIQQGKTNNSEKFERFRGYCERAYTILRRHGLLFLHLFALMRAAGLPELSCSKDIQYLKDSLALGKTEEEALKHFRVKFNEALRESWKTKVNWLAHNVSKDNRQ
PI3Kδ (p110δ/p85α) Recombinant Human Protein, sequence (P27986 whole entry partner): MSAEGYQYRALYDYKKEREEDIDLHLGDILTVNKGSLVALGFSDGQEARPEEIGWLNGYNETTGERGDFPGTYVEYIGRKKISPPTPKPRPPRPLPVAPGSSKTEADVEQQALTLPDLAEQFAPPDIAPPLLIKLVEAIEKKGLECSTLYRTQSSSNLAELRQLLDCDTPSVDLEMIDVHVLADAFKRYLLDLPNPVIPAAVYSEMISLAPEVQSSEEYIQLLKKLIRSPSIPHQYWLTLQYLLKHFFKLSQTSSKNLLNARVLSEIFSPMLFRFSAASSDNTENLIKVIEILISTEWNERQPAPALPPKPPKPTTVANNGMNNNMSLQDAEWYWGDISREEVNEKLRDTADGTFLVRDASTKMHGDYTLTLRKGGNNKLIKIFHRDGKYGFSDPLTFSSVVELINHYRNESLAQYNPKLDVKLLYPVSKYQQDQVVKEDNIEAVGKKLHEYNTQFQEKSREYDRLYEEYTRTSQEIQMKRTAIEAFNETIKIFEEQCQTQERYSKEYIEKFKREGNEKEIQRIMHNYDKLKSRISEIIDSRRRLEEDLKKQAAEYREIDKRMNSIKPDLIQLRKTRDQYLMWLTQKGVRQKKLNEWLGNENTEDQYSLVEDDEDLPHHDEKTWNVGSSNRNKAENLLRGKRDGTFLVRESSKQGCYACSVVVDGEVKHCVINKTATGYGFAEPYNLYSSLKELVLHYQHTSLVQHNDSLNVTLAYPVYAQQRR

Row | SMILES | IC50 ([1]; Homo sapiens) | IC50 [2] | IC50 [3] | IC50 [1]
1 | COc1cncc(-c2ccnc(-c3ncc(C4CC4)[nH]3)c2)c1 [Example 86, 2′-(5-Cyclopropyl-1H-imidazol-2-yl)-5-methoxy-3,4′-bipyridine] | 0.3 to 1 µM | ≤ 0.05 µM | ≤ 0.5 µM | 
2 | COc1cncc(-c2ccnc(-c3nc(C)c(C)[nH]3)c2)c1 [Example 76, 2′-(4,5-Dimethyl-1H-imidazol-2-yl)-5-methoxy-3,4′-bipyridine] | 0.3 to 1 µM | ≤ 0.05 µM | ≤ 0.1 µM | 
3 | Cc1n[nH]cc1-c1ccnc(-c2ncc(-c3ccccc3)[nH]2)c1 [Example 9, 4-(3-Methyl-1H-pyrazol-4-yl)-2-(5-phenyl-1H-imidazol-2-yl)pyridine trifluoroacetate salt] | 1 to 5 µM | ≤ 0.1 µM | ≤ 0.5 µM | 
4 | FC(F)(F)c1cnc(-c2cc(-c3cncc(N4CCOCC4)c3)ccn2)[nH]1 [Example 99, 4-(2′-(5-(Trifluoromethyl)-1H-imidazol-2-yl)-3,4′-bipyridin-5-yl)morpholine trifluoroacetate salt] | > 5 µM | ≤ 0.05 µM | ≤ 0.5 µM | 
5 | Cc1nc(-c2cc(-c3cncc(NCC4CCOC4)c3)ccn2)[nH]c1C (racemic) [Example 145B, 2′-(4,5-Dimethyl-1H-imidazol-2-yl)-N-(tetrahydrofuran-3-ylmethyl)-3,4′-bipyridin-5-amine] | ≤ 0.3 µM | ≤ 0.05 µM | ≤ 0.05 µM | 
6 | Cc1[nH]c(-c2cc(-c3cncc(S(C)(=O)=O)c3)ccn2)nc1C(=O)N[C@H]1CCOC1 [Example 255, 5-Methyl-2-[5-(methylsulfonyl)-3,4′-bipyridin-2′-yl]-N-[(3,S)-tetrahydrofuran-3-yl]-lH-imidazole-4-carboxamide trifluoroacetate salt] |  | ≤ 0.05 µM | ≤ 0.05 µM | 0.3 to 1 µM
7 | Cc1cnc(-c2cc(-c3cncc(S(=O)(=O)N[C@H]4CC[C@](C)(O)CC4)c3)ccn2)[nH]1 [Example 298, N-((1r,4r)-4-Hydroxy-4-methylcyclohexyl)-2′-(4-methyl-1H-imidazol-2-yl)-[3,4′-bipyridine]-5-sulfonamide Trifluoroacetate Salt] | ≤ 0.3 µM | ≤ 0.05 µM | ≤ 0.05 µM | 
8 | Cc1nc(-c2cc(-c3cncc(C(=O)N4CC(O)C4)c3)ccn2)[nH]c1C [Example 152, (2′-(4,5-Dimethyl-1H-imidazol-2-yl)-3,4′-bipyridin-5-yl)(3-hydroxyazetidin-1-yl)methanone trifluoroacetate salt] | 0.3 to 1 µM | ≤ 0.05 µM | ≤ 0.05 µM | 
9 | CS(=O)(=O)N1CCC(c2c[nH]c(-c3cc(-c4cnn(Cc5ccc(Cl)cc5)c4)ccn3)n2)C1 (single isomer, unassigned) [Example 300, 4-[1-(4-Chlorobenzyl)-1H-pyrazol-4-yl]-2-{4-[1-(methylsulfonyl)pyrrolidin-3-yl]-1H-imidazol-2-yl}pyridine Trifluoroacetate Salt] | 0.3 to 1 µM | ≤ 0.05 µM | ≤ 0.5 µM | 
10 | CCc1cnc(-c2cc(-c3cncc(OC)c3)ccn2)[nH]1 [Example 85, 2′-(5-Ethyl-1H-imidazol-2-yl)-5-methoxy-3,4′-bipyridine trifluoroacetate salt] | > 5 µM | ≤ 0.5 µM | > 0.5 µM | 
11 | Cc1[nH]c(-c2cc(-c3cncc(N4CCOCC4)c3)ccn2)nc1C(=O)N1CC(NC(=O)OC(C)(C)C)C1 [Example 264, tert-Butyl (1-{[5-methyl-2-(5-morpholin-4-yl-3,4′-bipyridin-2′-yl)-1H-imidazol-4-yl]carbonyl}azetidin-3-yl)carbamate] | 1 to 5 µM | ≤ 0.1 µM | ≤ 0.05 µM | 
12 | CCOC(=O)c1nc(-c2cc(-c3cncc(S(C)(=O)=O)c3)ccn2)[nH]c1C [Example 241, Ethyl 5-methyl-2-[5-(methylsulfonyl)-3,4′-bipyridin-2′-yl]-1H-imidazole-4-carboxylate] | 0.3 to 1 µM | ≤ 0.1 µM | ≤ 0.05 µM | 
13 | COC(=O)C1CCN(C(=O)c2cncc(-c3ccnc(-c4nc(C)c(C)[nH]4)c3)c2)C1 (racemic) [Example 175, Methyl 1-{[2′-(4,5-dimethyl-1H-imidazol-2-yl)-3,4′-bipyridin-5-yl]carbonyl}pyrrolidine-3-carboxylate trifluoroacetate salt] | ≤ 0.3 µM | ≤ 0.05 µM | ≤ 0.05 µM | 
14 | Nc1cncc(-c2ccnc(-c3ncc(-c4ccccc4)[nH]3)c2)c1 [Example 127, 2′-(5-Phenyl-1H-imidazol-2-yl)-3,4′-bipyridin-5-amine Trifluoroacetate Salt] | 1 to 5 µM | ≤ 0.05 µM | ≤ 0.05 µM | 
15 | CNc1nnc(-c2cc(-c3cncc(OC)c3)ccn2)[nH]1 [Example 68, 5-(5-Methoxy-3,4′-bipyridin-2′-yl)-N-methyl-4H-1,2,4-triazol-3-amine trifluoroacetate salt] | > 5 µM | ≤ 0.5 µM | > 0.5 µM | 
16 | c1ccc(-c2cnc(-c3cc(-c4cncc(N5CCOCC5)c4)ccn3)[nH]2)cc1 [Example 18, 4-(2′-(5-Phenyl-1H-imidazol-2-yl)-3,4′-bipyridin-5-yl)morpholine trifluoroacetate salt] | 0.3 to 1 µM | ≤ 0.05 µM | ≤ 0.05 µM | 
17 | Cc1nc(-c2cc(-c3cncc(C(=O)N4C5CCC4CC5)c3)ccn2)[nH]c1C [Example 179, 5-(7-Azabicyclo[2.2.1]hept-7-ylcarbonyl)-2′-(4,5-dimethyl-1H-imidazol-2-yl)-3,4′-bipyridine trifluoroacetate salt] | ≤ 0.3 µM | ≤ 0.05 µM | ≤ 0.1 µM | 
18 | Cc1[nH]c(-c2cc(-c3cncc(S(C)(=O)=O)c3)ccn2)nc1C(F)F [Example 121, 2′-[4-(Difluoromethyl)-5-methyl-1H-imidazol-2-yl]-5-(methylsulfonyl)-3,4′-bipyridine Trifluoroacetate Salt] | ≤ 0.3 µM | ≤ 0.05 µM | ≤ 0.05 µM | 
19 | Cc1nc(-c2cc(-c3cnn(Cc4ccc(Cl)cc4)c3)ccn2)[nH]c1C [Example 294, 4-(1-(4-Chlorobenzyl)-1H-pyrazol-4-yl)-2-(4,5-dimethyl-1H-imidazol-2-yl)pyridine Trifluoroacetate Salt] | > 5 µM | ≤ 0.05 µM | > 0.5 µM | 
20 | Cc1nc(-c2cc(-c3cncc(C(=O)N4CCC5(CCOCC5)CC4)c3)ccn2)[nH]c1C [Example 156, (2′-(4,5-Dimethyl-1H-imidazol-2-yl)-3,4′-bipyridin-5-yl)(3-oxa-9-azaspiro[5.5]undecan-9-yl)methanone trifluoroacetate salt] | 1 to 5 µM | ≤ 0.05 µM | ≤ 0.05 µM | 
21 | COc1cncc(-c2ccnc(-c3ncc(C(C)(C)C)[nH]3)c2)c1 [Example 88, 2′-(5-tert-Butyl-1H-imidazol-2-yl)-5-methoxy-3,4′-bipyridine trifluoroacetate salt] | > 5 µM | ≤ 0.5 µM | ≤ 0.05 µM | 
22 | CO[C@H]1CCN(C(=O)c2cncc(-c3ccnc(-c4nc(C)c(C)[nH]4)c3)c2)C1 [Example 212B, 2′-(4,5-Dimethyl-1H-imidazol-2-yl)-5-{[(3S)-3-methoxypyrrolidin-1-yl]carbonyl}-3,4′-bipyridine trifluoroacetate salt] | 0.3 to 1 µM | ≤ 0.05 µM | ≤ 0.1 µM | 
23 | Cc1nc(-c2cc(-c3cncc(C(=O)N4CCCC(O)C4)c3)ccn2)[nH]c1C (racemic) [Example 154, (2′-(4,5-Dimethyl-1H-imidazol-2-yl)-3,4′-bipyridin-5-yl)(3-hydroxypiperidin-1-yl)methanone] | 0.3 to 1 µM | ≤ 0.05 µM | ≤ 0.1 µM | 
24 | Cc1[nH]c(-c2cc(-c3cncc(N4CCOCC4)c3)ccn2)nc1C(=O)NC1CCCCC1 [Example 265, N-Cyclohexyl-5-methyl-2-(5-morpholin-4-yl-3,4′-bipyridin-2′-yl)-1H-imidazole-4-carboxamide] | 0.3 to 1 µM | ≤ 0.05 µM | ≤ 0.05 µM | 
25 | Cc1nc(-c2cc(-c3cncc(C(=O)N4CC[C@@H](N(C)C)C4)c3)ccn2)[nH]c1C [Example 161, (R)-(2′-(4,5-Dimethyl-1H-imidazol-2-yl)-3,4′-bipyridin-5-yl)(3-(dimethylamino)pyrrolidin-1-yl)methanone trifluoroacetate salt] | ≤ 0.3 µM | ≤ 0.05 µM | ≤ 0.1 µM | 
26 | CCc1[nH]c(-c2cc(-c3cncc(S(C)(=O)=O)c3)ccn2)nc1C [Example 117, 2′-(5-Ethyl-4-methyl-1H-imidazol-2-yl)-5-(methylsulfonyl)-3,4′-bipyridine] | ≤ 0.3 µM | ≤ 0.05 µM | ≤ 0.05 µM | 
27 | Cc1[nH]c(-c2cc(-c3cncc(S(C)(=O)=O)c3)ccn2)nc1C(=O)N1CC[C@@H](O)C1 [Example 245] |  | ≤ 0.05 µM | ≤ 0.05 µM | > 5 µM
28 | c1ccc(Cn2cc(-c3ccnc(-c4ncc(-c5ccccc5)[nH]4)c3)cn2)cc1 [Example 5, 4-(1-Benzyl-1H-pyrazol-4-yl)-2-(5-phenyl-1H-imidazol-2-yl)pyridine trifluoroacetate salt] | 1 to 5 µM | ≤ 0.1 µM | ≤ 0.05 µM | 
